In US20110275703A1, “SUBSTITUTED SPIROKETAL DERIVATIVES AND USE THEREOF AS THERAPEUTIC DRUG FOR DIABETES” (CHUGAI SEIYAKU KABUSHIKI KAISHA, priority 2007, published 2011):

Target: T1, human SGLT1 (Homo sapiens, UniProt P13866)
T1 construct: expressed in transfected cells; host or cells: CHO-K1
T1 sequence (P13866 1-664): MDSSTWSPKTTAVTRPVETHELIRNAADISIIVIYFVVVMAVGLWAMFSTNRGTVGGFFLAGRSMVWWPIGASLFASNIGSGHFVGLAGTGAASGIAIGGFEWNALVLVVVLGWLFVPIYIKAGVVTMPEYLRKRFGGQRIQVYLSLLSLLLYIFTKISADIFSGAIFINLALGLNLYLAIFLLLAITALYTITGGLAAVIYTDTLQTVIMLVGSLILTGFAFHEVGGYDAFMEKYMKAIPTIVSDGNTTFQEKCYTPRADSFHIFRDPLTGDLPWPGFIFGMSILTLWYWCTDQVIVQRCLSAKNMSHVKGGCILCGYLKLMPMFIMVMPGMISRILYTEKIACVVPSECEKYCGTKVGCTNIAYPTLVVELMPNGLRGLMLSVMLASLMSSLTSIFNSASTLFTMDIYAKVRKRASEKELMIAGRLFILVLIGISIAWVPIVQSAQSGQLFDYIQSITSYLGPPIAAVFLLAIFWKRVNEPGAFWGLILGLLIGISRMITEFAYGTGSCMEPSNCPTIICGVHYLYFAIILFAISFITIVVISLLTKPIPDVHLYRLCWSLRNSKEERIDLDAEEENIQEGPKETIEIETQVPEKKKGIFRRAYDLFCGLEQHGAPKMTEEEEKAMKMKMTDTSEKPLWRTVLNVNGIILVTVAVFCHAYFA
Test: Inhibitory activity against methyl-α-D-glucopyranoside uptake, CHO cells stably expressing human SGLT1
Assay type: cell-based
Settings: Table 2-2; read-out: hSGLT1 IC50 value
From the text: Evaluation of inhibitory activity against methyl-α-D-glucopyranoside uptake of human Na^+-glucose cotransporter (SGLT1 and SGLT2)
1) Construction of Human SGLT1 Expression Vector
Human SGLT1 cDNA was amplified by PCR with a cDNA library derived from human small intestine (Clontech) as a template, synthetic DNA primers and KOD+ DNA Polymerase (Toyobo Co., Ltd., Japan). The amplified cDNA was inserted into pcRII-Topo vector by using a Topo TA Cloning Dual Promoter kit (Invitrogen). E. coli competent cells (Invitrogen, TOP10) were transformed with the plasmid vector, cultured in LB medium containing ampicillin (50 mg/L) to grow ampicillin-resistant clones. The plasmid vector containing human SGLT1 cDNA was purified from the clone in a standard manner (see Maniatis et al., Molecular Cloning). Human SGLT1 cDNA added restriction enzyme recognition sites (Eco RI at 5′-end, Hind III at 3′-end) was amplified by PCR with the plasmid vector as a template, synthetic DNA primers containing an additional restriction enzyme recognition site, and KOD+ DNA Polymerase. This amplified cDNA was digested with Eco RI and Hind III and ligated into expression vector pcDNA3.1(−) (Invitrogen) digested with Eco RI and Hind III by a Rapid DNA Ligation kit (Roche Diagonostics). E. coli competent cells (Invitrogen, DH5α) were transformed with the ligated expression vector and grown in ampicillin-containing LB medium. Human SGLT1 expression vector was purified from the ampicillin-resistant clone in a standard manner.
3) Establishment of Cell Lines Stably Expressing Human SGLT1 or Human SGLT2
The human SGLT1 expression vector or the human SGLT2 expression vector was digested with the restriction enzyme Pvu I and transfected into CHO-Kl cells with FuGENE (Roche Diagonostics). After the transfection, the cells were cultured at 37° C. in the presence of 5% CO2 for about 3 weeks in DMEM medium (Gibco) containing penicillin (50 U/mL, SIGMA), streptomycin (50 mg/L, SIGMA), geneticin (200 mg/L, Nacalai Tesque, Inc., Japan) and 20% fetal bovine serum to obtain geneticin-resistant clones. Among these clones, clones stably expressing human SGLT1 or human SGLT2 were selected by the evaluating the sodium-dependent uptake activity of sugar (methyl-α-D-glucopyranoside).
4) Evaluation of Inhibitory Activity Against methyl-α-D-glucopyranoside uptake
Cell lines stably expressing human SGLT1 or human SGLT2 CHO were seeded in 96-well culture plates at a density of 30000 to 40000 cells/well and cultured for 4 to 6 days. The medium in these plates was removed and replaced by 150 μL/well pretreatment buffer (i.e., a buffer containing 140 mM choline chloride, 2 mM potassium chloride, 1 mM calcium chloride, 1 mM magnesium chloride, 10 mM 2-[4-(2-hydroxyethyl)-1-piperazinyl]ethanesulfonic acid and tris(hydroxymethyl)aminomethane, pH 7.4), and the plates were incubated at 37° C. for 20 minutes. The pretreatment buffer in the plates was removed, replaced by 50 μL/well fresh pretreatment buffer, and the plates were incubated at 37° C. for 20 minutes. Methyl-α-D-(U—^14C)glucopyranoside (6.3 mL, Amersham Pharmacia Biotech, 200 mCi/L) was added to and mixed with 100 mL buffer (i.e., a buffer containing 140 mM sodium chloride, 2 mM potassium chloride, 1 mM calcium chloride, 1 mM magnesium chloride, 1 mM methyl-α-D-glucopyranoside, 10 mM [4-(2-hydroxyethyl)-1-piperazinyl]ethanesulfonic acid and tris(hydroxymethyl)aminomethane, pH 7.4), which was used as uptake buffer. Test compounds were dissolved into uptake buffer and these test compound solutions were used for evaluating inhibitory activity. Uptake buffer without a test compound was used as a control solution. Moreover, for use in measuring baseline uptake in the absence of sodium, sodium-free solution was prepared in the same manner to contain 140 mM choline chloride instead of sodium chloride. […]

IC50 [nM] | SMILES
355 | OC[C@H]1O[C@]2(OCc3cc(Cl)c(Cc4ccc(CCF)cc4)cc32)[C@H](O)[C@@H](O)[C@@H]1O [Example 8, (1S,3′R,4′S,5′S,6′R)-5-chloro-6-[(4-(2-fluoroethyl)phenyl)methyl]-3′,4′,5′,6′-tetrahydro-6′-(hydroxymethyl)-spiro[isobenzofuran-1(3H),2′-[2H]pyran]-3′,4′,5′-triol]
132 | CCc1ccc(Cc2cc3c(cc2C)CO[C@]32O[C@H](CO)[C@@H](O)[C@H](O)[C@H]2O)cc1 [Comparative Compound 1, 1,1-anhydro-1-C-[5-(4-ethylphenyl)methyl-2-(hydroxymethyl)-4-methylphenyl]-β-glucopyranose, reference compound]
425 | CCOc1ccc(Cc2cc3c(cc2Cl)CO[C@]32O[C@H](CO)[C@@H](O)[C@H](O)[C@H]2O)cc1 [Example 5, (1S,3′R,4′S,5′S,6′R)-5-chloro-6-[(4-ethoxyphenyl)methyl]-3′,4′,5′,6′-tetrahydro-6′-(hydroxymethyl)-spiro[isobenzofuran-1(3H),2′-[2H]pyran]-3′,4′,5′-triol]
381 | OC[C@H]1O[C@]2(OCc3cc(Cl)c(Cc4ccc5ccccc5c4)cc32)[C@H](O)[C@@H](O)[C@@H]1O [Example 7, (1S,3′R,4′S,5′S,6′R)-5-chloro-3′,4′,5′,6′-tetrahydro-6′-(hydroxymethyl)-6-(2-naphthylmethyl)-spiro[isobenzofuran-1(3H),2′-[2H]pyran]-3′,4′,5′-triol]
682 | Cc1cc2c(cc1Cc1ccc(C(C)C)cc1)[C@]1(OC2)O[C@H](CO)[C@@H](O)[C@H](O)[C@H]1O [Example 21, (1S,3′R,4′S,5′S,6′R)-3′,4′,5′,6′-tetrahydro-6′-(hydroxymethyl)-6-[(4-isopropylphenyl)methyl]-5-methyl-spiro[isobenzofuran-1(3H),2′-[2H]pyran]-3′,4′,5′-triol]
1360 | CCCc1ccc(Cc2cc3c(cc2Cl)CO[C@]32O[C@H](CO)[C@@H](O)[C@H](O)[C@H]2O)cc1 [Example 9, (1S,3′R,4′S,5′S,6′R)-5-chloro-3′,4′,5′,6′-tetrahydro-6′-(hydroxymethyl)-6-[(4-propylphenyl)methyl]-spiro[isobenzofuran-1(3H),2′-[2H]pyran]-3′,4′,5′-triol]
1010 | CC(C)c1ccc(Cc2cc3c(cc2Cl)CO[C@]32O[C@H](CO)[C@@H](O)[C@H](O)[C@H]2O)cc1 [Example 15, (1S,3′R,4′S,5′S,6′R)-5-chloro-3′,4′,5′,6′-tetrahydro-6′-(hydroxymethyl)-6-[(4-isopropylphenyl)methyl]-spiro[isobenzofuran-1(3H),2′-[2H]pyran]-3′,4′,5′-triol]
201 | CCc1ccc(Cc2cc3c(cc2Cl)CO[C@]32O[C@H](CO)[C@@H](O)[C@H](O)[C@H]2O)cc1 [Example 1, (1S,3′R,4′S,5′S,6′R)-5-chloro-6-[(4-ethylphenyl)methyl]-3′,4′,5′,6′-tetrahydro-6′-(hydroxymethyl)-spiro[isobenzofuran-1(3H),2′-[2H]pyran]-3′,4′,5′-triol]
